The record followed here is patent US7282504B2, “Kinase inhibitors” (Amgen Inc., priority 2000, dated 2007).

By IC50 is commonly meant the concentration at which inhibition is half-maximal. Higher therefore signals weaker potency.

Common to all, as to format: biochemical
One assay addresses T1, EGFR-1 (Homo sapiens, UniProt P00533).
T1 construct: Kinases are expressed as either kinase domains or full-length constructs; made in house
Kind of assay: Kinase inhibition, 33P transfer to plate-bound substrate: EGFR-1. From the text: (§1) The inhibitor compounds described herein are screened in the following manner. Kinases suitable for use in the following protocol to determine kinase activity of the compounds described herein include, but are not limited to: Lck, Lyn, Src, Fyn, Syk, Zap-70, Itk, Tec, Btk, EGFR, ErbB2, Kdr, Flt-1, Flt-3, Tek, c-Met, InsR, and AKT.
(§2) Kinases are expressed as either kinase domains or full-length constructs fused to glutathione S-transferase (GST) or polyHistidine tagged fusion proteins in either E. coli or Baculovirus-High Five expression systems. They are purified to near homogeneity by affinity chromatography essentially as previously described (Lehr et al., 1996; Gish et al., 1995). In some instances, kinases are co-expressed or mixed with purified or partially purified regulatory polypeptides prior to measurement of activity.
(§3) Kinase activity and inhibition are measured essentially by established protocols (Braunwalder et al., 1996). Briefly, The transfer of ^33PO4 from ATP to the synthetic substrates poly(Glu, Tyr) 4:1 or poly(Arg, Ser) 3:1 attached to the bioactive surface of microtiter plates serves as the basis to evaluate enzyme activity. After an incubation period, the amount of phosphate transferred is measured by first washing the plate with 0.5% phosphoric acid, adding liquid scintillant, and then counting in a liquid scintillation detector. The IC50 is determined by the concentration of compound that causes a 50% reduction in the amount of ^33P incorporated onto the substrate bound to the plate.

In a further assay the target is T2, Lyn-1 (Homo sapiens, UniProt P07948).
T2 construct: Kinases are expressed as either kinase domains or full-length constructs; made in house
T2 sequence (P07948 whole entry, the tested form may be a part): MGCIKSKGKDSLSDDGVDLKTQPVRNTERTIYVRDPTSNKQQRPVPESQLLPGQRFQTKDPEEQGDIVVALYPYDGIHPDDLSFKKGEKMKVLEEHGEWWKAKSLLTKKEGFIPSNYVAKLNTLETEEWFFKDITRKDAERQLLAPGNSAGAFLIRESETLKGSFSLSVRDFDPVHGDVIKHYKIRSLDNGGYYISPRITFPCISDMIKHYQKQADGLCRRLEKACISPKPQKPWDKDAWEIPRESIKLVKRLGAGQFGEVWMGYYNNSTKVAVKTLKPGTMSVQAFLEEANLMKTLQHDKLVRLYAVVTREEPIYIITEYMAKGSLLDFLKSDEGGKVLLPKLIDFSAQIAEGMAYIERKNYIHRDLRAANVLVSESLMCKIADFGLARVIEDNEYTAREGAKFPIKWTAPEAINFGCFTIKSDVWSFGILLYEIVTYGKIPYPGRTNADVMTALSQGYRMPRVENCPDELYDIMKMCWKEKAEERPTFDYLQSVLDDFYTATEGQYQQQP
Kind of assay: Kinase inhibition, 33P transfer to plate-bound substrate: Lyn-1.
From the text: as §1, §2, §3

A further assay deals with T3, Lck-2 (Homo sapiens, UniProt P06239).
T3 construct: Kinases are expressed as either kinase domains or full-length constructs; made in house
T3 sequence (P06239 whole entry, the tested form may be a part): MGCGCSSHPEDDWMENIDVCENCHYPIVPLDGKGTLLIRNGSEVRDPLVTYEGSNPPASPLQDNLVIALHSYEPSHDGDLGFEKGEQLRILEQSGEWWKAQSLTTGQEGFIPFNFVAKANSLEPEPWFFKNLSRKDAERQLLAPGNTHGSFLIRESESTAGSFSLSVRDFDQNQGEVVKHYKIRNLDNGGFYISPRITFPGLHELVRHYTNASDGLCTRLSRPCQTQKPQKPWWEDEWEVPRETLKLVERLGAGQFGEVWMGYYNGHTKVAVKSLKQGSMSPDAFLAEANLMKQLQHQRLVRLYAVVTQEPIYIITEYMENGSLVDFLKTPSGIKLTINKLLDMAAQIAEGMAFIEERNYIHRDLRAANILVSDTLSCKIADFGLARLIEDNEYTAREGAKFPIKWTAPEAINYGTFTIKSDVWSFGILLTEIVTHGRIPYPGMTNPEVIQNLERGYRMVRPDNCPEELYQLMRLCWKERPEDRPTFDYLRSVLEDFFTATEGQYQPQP
Kind of assay: Kinase inhibition, 33P transfer to plate-bound substrate: Lck-2.
From the text: as §1, §2, §3

The target of another assay is T4, PDGFRB (Homo sapiens, UniProt P09619).
T4 construct: Kinases are expressed as either kinase domains or full-length constructs; made in house
Kind of assay: Kinase inhibition, 33P transfer to plate-bound substrate: PDGFRB.
From the text: as §1, §2, §3

A further assay has as its target T5, Zap-1 (Homo sapiens, UniProt P43403).
T5 construct: Kinases are expressed as either kinase domains or full-length constructs; made in house
T5 sequence (P43403 1-619): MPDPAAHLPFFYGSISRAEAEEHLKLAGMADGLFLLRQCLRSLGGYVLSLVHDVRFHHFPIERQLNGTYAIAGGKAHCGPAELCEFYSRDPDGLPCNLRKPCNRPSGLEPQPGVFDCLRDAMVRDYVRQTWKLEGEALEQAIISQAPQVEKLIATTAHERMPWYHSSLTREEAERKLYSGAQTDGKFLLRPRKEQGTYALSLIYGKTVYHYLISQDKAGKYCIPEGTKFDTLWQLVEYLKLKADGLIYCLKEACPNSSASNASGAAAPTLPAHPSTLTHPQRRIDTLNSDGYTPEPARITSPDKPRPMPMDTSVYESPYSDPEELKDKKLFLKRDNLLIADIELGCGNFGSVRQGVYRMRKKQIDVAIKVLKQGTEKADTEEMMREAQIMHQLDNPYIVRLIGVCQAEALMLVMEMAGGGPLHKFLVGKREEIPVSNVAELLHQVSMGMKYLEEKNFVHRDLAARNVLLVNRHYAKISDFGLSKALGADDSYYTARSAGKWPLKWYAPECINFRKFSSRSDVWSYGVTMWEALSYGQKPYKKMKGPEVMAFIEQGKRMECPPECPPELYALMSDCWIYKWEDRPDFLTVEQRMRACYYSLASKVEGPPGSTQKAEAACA
The assay is described as follows: Kinase inhibition, 33P transfer to plate-bound substrate: Zap-1.
From the text: as §1, §2, §3

In a further assay the target is T6, InsR-1 (Homo sapiens, UniProt P06213).
T6 construct: Kinases are expressed as either kinase domains or full-length constructs; made in house
Kind of assay: Kinase inhibition, 33P transfer to plate-bound substrate: InsR-1.
From the text: as §1, §2, §3

Another assay deals with T7, ErbB2-1 (Homo sapiens, UniProt P04626).
T7 construct: Kinases are expressed as either kinase domains or full-length constructs; made in house
T7 sequence (P04626 23-1255): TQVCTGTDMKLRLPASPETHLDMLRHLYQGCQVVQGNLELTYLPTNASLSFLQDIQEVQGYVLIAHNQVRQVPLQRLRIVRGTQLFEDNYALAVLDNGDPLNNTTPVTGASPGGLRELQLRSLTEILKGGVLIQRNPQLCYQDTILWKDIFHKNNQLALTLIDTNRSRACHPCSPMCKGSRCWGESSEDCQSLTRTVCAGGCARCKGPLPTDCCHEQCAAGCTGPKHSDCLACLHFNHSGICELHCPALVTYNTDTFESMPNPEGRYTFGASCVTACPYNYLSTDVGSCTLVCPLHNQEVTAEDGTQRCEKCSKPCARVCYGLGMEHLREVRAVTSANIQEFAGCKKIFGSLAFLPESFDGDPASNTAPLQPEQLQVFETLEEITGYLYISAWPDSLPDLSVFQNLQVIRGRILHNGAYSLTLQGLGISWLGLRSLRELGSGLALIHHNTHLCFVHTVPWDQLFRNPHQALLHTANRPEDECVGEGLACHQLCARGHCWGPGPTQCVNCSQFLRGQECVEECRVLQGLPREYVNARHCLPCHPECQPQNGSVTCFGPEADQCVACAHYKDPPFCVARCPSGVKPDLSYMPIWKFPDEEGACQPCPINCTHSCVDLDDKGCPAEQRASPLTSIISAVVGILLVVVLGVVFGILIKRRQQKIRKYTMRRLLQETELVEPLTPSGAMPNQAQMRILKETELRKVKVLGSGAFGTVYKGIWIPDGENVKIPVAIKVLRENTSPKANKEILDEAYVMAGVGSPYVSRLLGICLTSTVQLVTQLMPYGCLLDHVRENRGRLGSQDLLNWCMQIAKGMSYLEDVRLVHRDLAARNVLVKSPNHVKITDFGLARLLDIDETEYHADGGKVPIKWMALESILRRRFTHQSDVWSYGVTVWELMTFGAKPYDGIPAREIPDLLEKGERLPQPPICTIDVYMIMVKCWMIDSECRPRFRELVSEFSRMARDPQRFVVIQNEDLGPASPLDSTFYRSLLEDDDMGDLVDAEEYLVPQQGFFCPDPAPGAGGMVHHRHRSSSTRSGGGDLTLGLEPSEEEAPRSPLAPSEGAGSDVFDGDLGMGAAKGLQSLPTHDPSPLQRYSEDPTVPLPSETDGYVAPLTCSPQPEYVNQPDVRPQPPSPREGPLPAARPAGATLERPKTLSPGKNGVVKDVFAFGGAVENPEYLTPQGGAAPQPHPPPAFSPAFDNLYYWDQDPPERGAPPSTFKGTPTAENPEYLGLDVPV
Kind of assay: Kinase inhibition, 33P transfer to plate-bound substrate: ErbB2-1.
From the text: as §1, §2, §3

In another assay the target is T8, IGFR-1 (Homo sapiens, UniProt P08069).
T8 construct: Kinases are expressed as either kinase domains or full-length constructs; made in house
Kind of assay: Kinase inhibition, 33P transfer to plate-bound substrate: IGFR-1.
From the text: as §1, §2, §3

The next assay deals with T9, KDR-1 (Homo sapiens, UniProt P35968).
T9 construct: Kinases are expressed as either kinase domains or full-length constructs; made in house
Kind of assay: Kinase inhibition, 33P transfer to plate-bound substrate: KDR-1.
From the text: as §1, §2, §3

The next assay addresses T10, Lck-1 (Homo sapiens, UniProt P06239).
T10 construct: Kinases are expressed as either kinase domains or full-length constructs; made in house
Kind of assay: Kinase inhibition, 33P transfer to plate-bound substrate: Lck-1.
From the text: as §1, §2, §3

The target in the next assay is T11, Akt3-1 (Homo sapiens, UniProt Q9Y243).
T11 construct: Kinases are expressed as either kinase domains or full-length constructs; made in house
The assay is described as follows: Kinase inhibition, 33P transfer to plate-bound substrate: Akt3-1.
From the text: as §1, §2, §3

The target of the next assay is T12, Itk-1 (Homo sapiens, UniProt Q08881).
T12 construct: Kinases are expressed as either kinase domains or full-length constructs; made in house
T12 sequence (Q08881 1-620): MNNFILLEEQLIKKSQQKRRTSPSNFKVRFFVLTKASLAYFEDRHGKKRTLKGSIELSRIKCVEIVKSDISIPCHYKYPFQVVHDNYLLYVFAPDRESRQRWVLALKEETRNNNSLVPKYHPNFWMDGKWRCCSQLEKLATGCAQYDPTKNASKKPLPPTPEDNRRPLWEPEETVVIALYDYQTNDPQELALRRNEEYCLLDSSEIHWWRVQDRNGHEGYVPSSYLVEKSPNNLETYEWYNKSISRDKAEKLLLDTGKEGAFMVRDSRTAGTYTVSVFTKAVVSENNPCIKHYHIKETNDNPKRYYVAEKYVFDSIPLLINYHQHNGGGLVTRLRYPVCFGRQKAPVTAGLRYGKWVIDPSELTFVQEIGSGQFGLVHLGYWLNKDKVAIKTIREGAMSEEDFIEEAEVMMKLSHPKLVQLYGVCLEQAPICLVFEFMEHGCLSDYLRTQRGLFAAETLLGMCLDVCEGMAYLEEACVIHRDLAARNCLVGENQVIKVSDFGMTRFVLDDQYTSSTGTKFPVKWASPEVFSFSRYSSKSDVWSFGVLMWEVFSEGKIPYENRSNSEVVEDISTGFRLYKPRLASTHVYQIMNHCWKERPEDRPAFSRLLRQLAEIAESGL
Kind of assay: Kinase inhibition, 33P transfer to plate-bound substrate: Itk-1.
From the text: as §1, §2, §3

For a further assay, the target named is T13, FGFR1-1 (Homo sapiens, UniProt P11362).
T13 construct: Kinases are expressed as either kinase domains or full-length constructs; made in house
Kind of assay: Kinase inhibition, 33P transfer to plate-bound substrate: FGFR1-1.
From the text: as §1, §2, §3

In the next assay the target is T14, Fyn-1 (Homo sapiens, UniProt P06241).
T14 construct: Kinases are expressed as either kinase domains or full-length constructs; made in house
The assay is described as follows: Kinase inhibition, 33P transfer to plate-bound substrate: Fyn-1.
From the text: as §1, §2, §3

The target of another assay is T15, Src-1 (Homo sapiens, UniProt P12931).
T15 construct: Kinases are expressed as either kinase domains or full-length constructs; made in house
The assay is described as follows: Kinase inhibition, 33P transfer to plate-bound substrate: Src-1.
From the text: as §1, §2, §3

A further assay has as its target T16, Flt1-1 (Homo sapiens, UniProt P17948).
T16 construct: Kinases are expressed as either kinase domains or full-length constructs; made in house
Kind of assay: Kinase inhibition, 33P transfer to plate-bound substrate: Flt1-1.
From the text: as §1, §2, §3

For the next assay, the target named is T17, Met-1 (Homo sapiens, UniProt P08581).
T17 construct: Kinases are expressed as either kinase domains or full-length constructs; made in house
Kind of assay: Kinase inhibition, 33P transfer to plate-bound substrate: Met-1.
From the text: as §1, §2, §3

A further assay has as its target T18, Ret-1 (Homo sapiens, UniProt P07949).
T18 construct: Kinases are expressed as either kinase domains or full-length constructs; made in house
Kind of assay: Kinase inhibition, 33P transfer to plate-bound substrate: Ret-1.
From the text: as §1, §2, §3

Another assay has as its target T19, ErbB4-1 (Homo sapiens, UniProt Q15303).
T19 construct: Kinases are expressed as either kinase domains or full-length constructs; made in house
Kind of assay: Kinase inhibition, 33P transfer to plate-bound substrate: ErbB4-1.
From the text: as §1, §2, §3

For a further assay, the target named is T20, Tek-1 (Homo sapiens, UniProt Q02763).
T20 construct: Kinases are expressed as either kinase domains or full-length constructs; made in house
Kind of assay: Kinase inhibition, 33P transfer to plate-bound substrate: Tek-1.
From the text: as §1, §2, §3

A further assay deals with T21, Hck-1 (Homo sapiens, UniProt P08631).
T21 construct: Kinases are expressed as either kinase domains or full-length constructs; made in house
The assay is described as follows: Kinase inhibition, 33P transfer to plate-bound substrate: Hck-1.
From the text: as §1, §2
Kinase activity and inhibition are measured essentially by established protocols (Braunwalder et al., 1996). Briefly, The transfer of ^33PO4 from ATP to the synthetic substrates poly(Glu, Tyr) 4:1 or poly(Arg, Ser) 3:1 attached to the bioactive surface of microtiter plates serves as the basis to evaluate enzyme activity. After an incubation period, the amount of phosphate transferred is measured by first washing the plate with 0.5% phosphoric acid, adding liquid scintillant, and then counting in a liquid scintillation detector. […]

The structures appear in SMILES notation.

T18 sequence (P07949 29-1114): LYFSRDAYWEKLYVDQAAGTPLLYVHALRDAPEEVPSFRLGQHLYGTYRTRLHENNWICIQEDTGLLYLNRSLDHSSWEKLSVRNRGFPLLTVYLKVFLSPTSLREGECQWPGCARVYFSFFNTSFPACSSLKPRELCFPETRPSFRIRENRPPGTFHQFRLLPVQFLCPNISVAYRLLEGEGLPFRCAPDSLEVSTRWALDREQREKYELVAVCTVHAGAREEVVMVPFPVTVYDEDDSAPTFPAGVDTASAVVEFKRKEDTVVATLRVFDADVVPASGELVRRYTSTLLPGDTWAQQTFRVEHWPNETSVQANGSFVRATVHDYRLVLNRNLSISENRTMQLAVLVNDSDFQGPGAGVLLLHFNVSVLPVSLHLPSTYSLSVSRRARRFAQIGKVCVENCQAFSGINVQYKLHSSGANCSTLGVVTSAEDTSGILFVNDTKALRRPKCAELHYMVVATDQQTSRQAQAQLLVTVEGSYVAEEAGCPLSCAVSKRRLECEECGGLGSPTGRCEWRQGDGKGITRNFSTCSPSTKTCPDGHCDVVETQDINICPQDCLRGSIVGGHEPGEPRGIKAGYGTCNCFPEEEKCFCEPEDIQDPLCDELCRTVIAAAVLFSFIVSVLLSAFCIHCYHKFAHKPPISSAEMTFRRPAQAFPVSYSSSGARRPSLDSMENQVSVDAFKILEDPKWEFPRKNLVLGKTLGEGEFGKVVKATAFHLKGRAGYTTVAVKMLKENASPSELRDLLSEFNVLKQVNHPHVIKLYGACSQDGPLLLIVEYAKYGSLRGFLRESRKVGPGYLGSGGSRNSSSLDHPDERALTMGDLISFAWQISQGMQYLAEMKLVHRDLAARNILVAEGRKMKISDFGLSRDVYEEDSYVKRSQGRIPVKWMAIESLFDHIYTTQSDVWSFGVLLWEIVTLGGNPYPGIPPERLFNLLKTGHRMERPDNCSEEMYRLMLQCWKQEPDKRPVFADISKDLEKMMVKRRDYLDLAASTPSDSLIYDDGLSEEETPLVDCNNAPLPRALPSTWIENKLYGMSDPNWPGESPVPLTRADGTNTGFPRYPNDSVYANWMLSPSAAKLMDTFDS
T19 sequence (Q15303 26-1308): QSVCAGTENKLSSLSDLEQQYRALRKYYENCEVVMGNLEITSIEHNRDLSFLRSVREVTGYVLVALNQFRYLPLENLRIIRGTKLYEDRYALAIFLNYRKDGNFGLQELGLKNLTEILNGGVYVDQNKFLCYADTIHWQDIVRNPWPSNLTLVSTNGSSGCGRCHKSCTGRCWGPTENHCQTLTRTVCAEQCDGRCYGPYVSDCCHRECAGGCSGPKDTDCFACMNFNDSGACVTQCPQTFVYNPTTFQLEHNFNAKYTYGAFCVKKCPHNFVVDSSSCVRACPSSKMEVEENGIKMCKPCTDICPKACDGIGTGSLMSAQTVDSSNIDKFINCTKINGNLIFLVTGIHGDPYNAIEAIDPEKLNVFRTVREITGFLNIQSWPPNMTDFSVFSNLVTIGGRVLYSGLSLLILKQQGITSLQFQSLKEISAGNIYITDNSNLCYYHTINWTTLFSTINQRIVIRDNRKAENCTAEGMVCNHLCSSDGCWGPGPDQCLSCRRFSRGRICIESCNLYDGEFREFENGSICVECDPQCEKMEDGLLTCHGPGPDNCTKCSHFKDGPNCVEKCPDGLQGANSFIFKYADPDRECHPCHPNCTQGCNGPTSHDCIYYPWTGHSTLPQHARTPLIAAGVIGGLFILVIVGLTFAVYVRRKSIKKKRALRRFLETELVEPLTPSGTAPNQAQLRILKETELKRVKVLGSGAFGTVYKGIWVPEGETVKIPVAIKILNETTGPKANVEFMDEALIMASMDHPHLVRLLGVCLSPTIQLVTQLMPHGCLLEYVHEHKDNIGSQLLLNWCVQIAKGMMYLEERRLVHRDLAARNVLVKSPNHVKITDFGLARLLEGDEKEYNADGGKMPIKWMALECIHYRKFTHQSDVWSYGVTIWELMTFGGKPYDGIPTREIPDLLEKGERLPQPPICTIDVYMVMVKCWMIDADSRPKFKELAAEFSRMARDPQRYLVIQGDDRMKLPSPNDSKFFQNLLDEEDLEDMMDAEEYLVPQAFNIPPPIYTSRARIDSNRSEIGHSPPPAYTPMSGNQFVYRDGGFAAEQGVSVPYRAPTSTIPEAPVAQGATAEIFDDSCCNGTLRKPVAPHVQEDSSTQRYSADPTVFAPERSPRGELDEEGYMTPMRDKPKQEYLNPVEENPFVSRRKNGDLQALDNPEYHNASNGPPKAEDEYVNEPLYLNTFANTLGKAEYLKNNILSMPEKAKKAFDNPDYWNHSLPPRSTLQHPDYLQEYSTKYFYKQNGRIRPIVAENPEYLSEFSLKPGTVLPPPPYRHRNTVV
T10 sequence (P06239 whole entry, the tested form may be a part): as the sequence (P06239 whole entry, the tested form may be a part) above

On to `COc1cc(Nc2nccc(Nc3cc(C(C)(C)C)n[nH]3)n2)cc(OC)c1OC` [Compound 35], for which the IC50 on EGFR-1 is 5 to 10 µM; against Lyn-1, less than 1.5 µM; against Lck-2, less than 1.5 µM; against PDGFRB, 1.5 to 5 µM; on Zap-1, not below 10 µM; at InsR-1, less than 1.5 µM. For the same compound, the IC50 at ErbB2-1 was not below 10 µM; at IGFR-1, less than 1.5 µM; against KDR-1, 1.5 to 5 µM; on Lck-1, less than 1.5 µM; at Akt3-1 it was not below 10 µM; on Itk-1, 1.5 to 5 µM. Besides, the IC50 is 5 to 10 µM on FGFR1-1; 1.5 to 5 µM at Fyn-1; less than 1.5 µM against Src-1; 5 to 10 µM on Flt1-1; less than 1.5 µM at Met-1; 1.5 to 5 µM at Ret-1. Besides, on ErbB4-1, the IC50 was in the range of 5 to 10 µM.
For `COc1ccc(Nc2ccnc(Nc3ccc(OC)c(OC)c3)n2)cc1OC` [Compound 56], the IC50 against EGFR-1 is not below 10 µM; at Lck-2 it was less than 1.5 µM; on PDGFRB, less than 1.5 µM; at Zap-1, not below 10 µM; against InsR-1, not below 10 µM; against ErbB2-1, not below 10 µM. Further, the IC50 at IGFR-1 was less than 1.5 µM; against KDR-1, less than 1.5 µM; against Lck-1 it was 5 to 10 µM; on Akt3-1 it was not below 10 µM; against Itk-1, not below 10 µM; on FGFR1-1 it was 1.5 to 5 µM. The IC50 against Fyn-1 is 5 to 10 µM; at Src-1 it was 1.5 to 5 µM; against Flt1-1, 1.5 to 5 µM; against Met-1, not below 10 µM; against Ret-1, 1.5 to 5 µM.
`COc1cc(Nc2nccc(-n3c(=O)[nH]c4ccccc43)n2)cc(OC)c1OC` [Compound 3]: the IC50 is 5 to 10 µM against Tek-1; not below 10 µM on EGFR-1; 1.5 to 5 µM against Lyn-1; 1.5 to 5 µM at Lck-2; less than 1.5 µM on PDGFRB; 1.5 to 5 µM at Zap-1. The IC50 was 1.5 to 5 µM on InsR-1; not below 10 µM against ErbB2-1; not below 10 µM against Hck-1; less than 1.5 µM against IGFR-1; less than 1.5 µM against KDR-1; 1.5 to 5 µM at Lck-1. Moreover, the IC50 at Akt3-1 is not below 10 µM; against Itk-1 it was not below 10 µM; on FGFR1-1 it was less than 1.5 µM; against Fyn-1, 5 to 10 µM; on Src-1, 5 to 10 µM; at Flt1-1, less than 1.5 µM. Besides, the IC50 on Met-1 was 1.5 to 5 µM; on Ret-1 it was less than 1.5 µM; at ErbB4-1, not below 10 µM.
Regarding `COc1cc(Nc2nccc(-n3ccc4ccccc43)n2)cc(OC)c1OC` [Compound 31], the IC50 at Tek-1 is 5 to 10 µM; against EGFR-1, not below 10 µM; against Lyn-1, less than 1.5 µM; against Lck-2, less than 1.5 µM; against PDGFRB, less than 1.5 µM; against Zap-1 it was not below 10 µM. Also, the IC50 against Hck-1 is not below 10 µM; against KDR-1, less than 1.5 µM; against Lck-1, less than 1.5 µM; against Akt3-1, not below 10 µM; against Itk-1 it was 1.5 to 5 µM; against FGFR1-1 it was less than 1.5 µM. Further, the IC50 on Fyn-1 was less than 1.5 µM; on Src-1 it was less than 1.5 µM; against Flt1-1, less than 1.5 µM; against Met-1, 1.5 to 5 µM; against ErbB4-1 it was 1.5 to 5 µM.
